Test results taken from US20140066595A1, “Modulators of Protein Production in a Human Cell Line and Cell-free Extracts Produced Therefrom” (THERMO FISHER SCIENTIFIC BIOSCIENCES INC., priority 2012, published 2014).
Entries after “also recorded” stand apart in the source; their conditions may differ.

Legend:
[1] = system: HeLaS3-Gluc cells; experiment: Gluc expression of HeLaS3-Gluc cells treated with amiloride, with or without ER stressors; type: cell-based, human
Procedure: (§1) HeLaS3-Gluc cells were plated at 10K/well and incubated overnight. Subsequently, they were pre-treated with amiloride and incubated for 1 hour. Amiloride was used at increasing doses, both alone and in the presence of cellular stressors tunicamycin or thapsigargin. When the ER stressors were included, incubation was for 2 hours, at which time Gluc was measured. The media was then changed, and amiloride and ER stressors were added again. This time incubation was overnight. The media was again changed and the amount of Gluc made was measured after two hours. Amiloride was used in amounts of 0-500 μM. Tunicamycin was used in an amount of 5 μM. Thapsigargin was used in an amount of 2 μM.

[2] = system: HeLaS3-Gluc cells; experiment: Viability of HeLaS3-Gluc cells treated with amiloride, with or without ER stressors; type: cell-based, human
Procedure: as §1

[3] = amiloride alone, 0-500 μM, no stress, normalized to no amiloride at 18 hours (FIG. 1)

N=C(N)NC(=O)c1nc(Cl)c(N)nc1N [amiloride, 3,5-diamino-6-chloro-N-(diaminomethylene) pyrazine 2-carboxamide]
Gluc expression (luciferase output) under ER stress ([1]; amiloride 0-500 μM with tunicamycin 5 μM or thapsigargin 2 μM, 18 hours (FIG. 3)): rescued by treatment with an increasing amount of amiloride; also recorded: can restore Gluc expression | Gluc expression (luciferase output) of unstressed cells [1, 3]: did not lead to increased luciferase output | cell viability under ER stress ([2]; amiloride 0-500 μM with tunicamycin 5 μM or thapsigargin 2 μM, normalized to no stress at 18 hours (FIG. 2)): does not have an additional effect on cell viability | viability of unstressed cells [2, 3]: decrease in viability
